Reference: PMC9927415, “Tyrosine Kinase Inhibitors Display Potent Activity against Cryptosporidium parvum” (Microbiology Spectrum, 2022)

Legend:
SRPK1 = target: T1, SRPK1 (Homo sapiens, UniProt Q96SB4); test: KINOMEscan competitive binding; details: n=1, read-out: Percent inhibition, SRPK1
T1 construct: purchased DiscoverX (KINOMEscan)

PRKCH = target: T2, PRKCH (Homo sapiens, UniProt P24723); test: KINOMEscan competitive binding; details: n=1, read-out: Percent inhibition, PRKCH
T2 construct: purchased DiscoverX (KINOMEscan)

PKMYT1 = target: T3, PKMYT1 (Homo sapiens, UniProt Q99640); test: KINOMEscan competitive binding; details: n=1, read-out: Percent inhibition, PKMYT1
T3 construct: purchased DiscoverX (KINOMEscan)
T3 sequence (Q99640 1-499): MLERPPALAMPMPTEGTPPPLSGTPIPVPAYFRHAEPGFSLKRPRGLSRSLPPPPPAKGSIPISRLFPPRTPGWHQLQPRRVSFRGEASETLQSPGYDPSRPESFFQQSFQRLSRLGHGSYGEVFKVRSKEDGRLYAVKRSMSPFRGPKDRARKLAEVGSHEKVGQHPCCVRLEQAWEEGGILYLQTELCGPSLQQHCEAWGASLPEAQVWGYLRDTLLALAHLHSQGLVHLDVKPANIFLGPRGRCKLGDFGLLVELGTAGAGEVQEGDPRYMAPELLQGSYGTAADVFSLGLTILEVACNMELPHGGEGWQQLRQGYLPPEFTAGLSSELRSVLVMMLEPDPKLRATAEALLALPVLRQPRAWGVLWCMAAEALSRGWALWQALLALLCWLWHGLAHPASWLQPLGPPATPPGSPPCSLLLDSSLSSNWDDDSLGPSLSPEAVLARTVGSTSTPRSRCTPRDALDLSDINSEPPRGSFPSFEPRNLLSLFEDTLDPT

PAK1 = target: T4, PAK1 (Homo sapiens, UniProt Q13153); test: KINOMEscan competitive binding; details: n=1, read-out: Percent inhibition, PAK1
T4 construct: purchased DiscoverX (KINOMEscan)

PIM1 = target: T5, PIM1 (Homo sapiens, UniProt P11309); test: KINOMEscan competitive binding; details: n=1, read-out: Percent inhibition, PIM1
T5 construct: purchased DiscoverX (KINOMEscan)

TNNI3K = target: T6, TNNI3K (Homo sapiens, UniProt Q59H18); test: KINOMEscan competitive binding; details: n=1, read-out: Percent inhibition, TNNI3K
T6 construct: purchased DiscoverX (KINOMEscan)
T6 sequence (Q59H18 1-835): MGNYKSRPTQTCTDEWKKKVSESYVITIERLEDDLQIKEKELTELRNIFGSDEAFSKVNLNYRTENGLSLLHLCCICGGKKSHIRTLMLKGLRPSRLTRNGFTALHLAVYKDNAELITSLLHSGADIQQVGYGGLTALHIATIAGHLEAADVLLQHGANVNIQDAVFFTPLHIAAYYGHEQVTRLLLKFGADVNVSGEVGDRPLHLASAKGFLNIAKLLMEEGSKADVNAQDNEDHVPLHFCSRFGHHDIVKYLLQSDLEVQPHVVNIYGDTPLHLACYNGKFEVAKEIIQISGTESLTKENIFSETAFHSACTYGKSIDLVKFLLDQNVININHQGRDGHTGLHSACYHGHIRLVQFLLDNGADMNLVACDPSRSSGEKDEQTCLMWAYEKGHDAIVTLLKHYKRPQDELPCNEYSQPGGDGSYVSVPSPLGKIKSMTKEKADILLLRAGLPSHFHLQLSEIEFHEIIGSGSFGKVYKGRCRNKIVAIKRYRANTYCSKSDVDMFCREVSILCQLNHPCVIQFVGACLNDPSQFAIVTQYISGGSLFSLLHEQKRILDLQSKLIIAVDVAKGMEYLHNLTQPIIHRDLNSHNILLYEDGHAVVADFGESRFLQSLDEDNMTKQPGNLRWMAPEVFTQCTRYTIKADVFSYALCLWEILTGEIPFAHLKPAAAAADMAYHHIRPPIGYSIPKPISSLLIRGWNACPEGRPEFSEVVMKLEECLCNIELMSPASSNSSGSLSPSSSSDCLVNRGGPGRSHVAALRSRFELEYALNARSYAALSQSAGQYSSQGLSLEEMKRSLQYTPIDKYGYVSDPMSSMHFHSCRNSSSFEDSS

ROS1 = target: T7, ROS1 (Homo sapiens, UniProt P08922); test: KINOMEscan competitive binding; details: n=1, read-out: Percent inhibition, ROS1
T7 construct: purchased DiscoverX (KINOMEscan)

TRKC = target: T8, TRKC (Homo sapiens, UniProt Q16288); test: KINOMEscan competitive binding; details: n=1, read-out: Percent inhibition, TRKC
T8 construct: purchased DiscoverX (KINOMEscan)

[1] = Host cell cytotoxicity assay (CellTiter-Glo); details: human, HepG2 cells
Protocol: HepG2 cells were grown in Eagle’s Minimum Essential Medium (MEM) containing 10% FBS, 1% nonessential amino acids (NEAA) and 1% penicillin/streptomycin to >50% confluence prior to harvesting. Cells were suspended in media and 3000 cells per well were added onto 384-well clear bottom plates. Prior to addition of the cell suspension, the screening compounds (250 nl) were predispensed into plates using a liquid handler. Plates were incubated for 48 h at 37°C, 5% CO2. After 48 h of incubation, plates were equilibrated at room temperature for 30 min before luminescence signal was measured using CellTiter-Glo Reagent. Plates were kept at room temperature for 10 min to stabilize the signal and then read using a ViewLux luminescence reader. The HepG2 CC50 (from the host cell cytotoxicity assays) and C. parvum mean EC50 (from parasite growth inhibition assays) values were used to calculate selectivity index.

TRKB = target: T9, TRKB (Homo sapiens, UniProt Q16620); test: KINOMEscan competitive binding; details: n=1, read-out: Percent inhibition, TRKB
T9 construct: purchased DiscoverX (KINOMEscan)

PTK2B = target: T10, PTK2B (Homo sapiens, UniProt Q14289); test: KINOMEscan competitive binding; details: n=1, read-out: Percent inhibition, PTK2B
T10 construct: purchased DiscoverX (KINOMEscan)

PHKG1 = target: T11, PHKG1 (Homo sapiens, UniProt Q16816); test: KINOMEscan competitive binding; details: n=1, read-out: Percent inhibition, PHKG1
T11 construct: purchased DiscoverX (KINOMEscan)

SMILES	inhibition at 10 µM (SRPK1) [%]	inhibition at 10 µM (PRKCH) [%]	inhibition at 10 µM (PKMYT1) [%]	inhibition at 10 µM (PAK1) [%]	inhibition at 10 µM (PIM1) [%]	inhibition at 10 µM (TNNI3K) [%]	inhibition at 10 µM (ROS1) [%]	inhibition at 10 µM (TRKC) [%]	CC50 at 48 h [1] [µM]	inhibition at 10 µM (TRKB) [%]	inhibition at 10 µM (PTK2B) [%]	inhibition at 10 µM (PHKG1) [%]
CN1CCN(c2ccc(Nc3nccc(-c4cnn5ncccc45)n3)cc2C#N)CC1 [Compound 1]	95.5	83.4	0	99.8	99.8	0	91.9	82.8	> 100	96.5	83.9	88.3
COc1ccc(Nc2nccc(-c3cnn4ncccc34)n2)cc1 [Compound 2]	90.6	0	0	0	0	0	90.3	0	> 100	0	89.6	0
Cc1ccc(O)cc1Nc1ccnc(Nc2cccc(C(N)=O)c2)n1 [Compound 3]	0	0	97.9	79.3	0	99.9	0	0	33.1	0	83.8	0
Cc1ccc(O)cc1N(C)c1ccnc(Nc2cccc(S(N)(=O)=O)c2)n1 [Compound 4]	0	0	100	98.5	0	100	90	90	–	91.7	99	0
Fc1cccc(COc2ccc(Nc3ncnc4c3CN(CCN3CCOCC3)CC4)cc2Cl)c1 [Compound 6]	0	0	0	0	0	0	0	0	46.7	0	0	0
COc1cc(Nc2nccc(-c3sc(N)nc3-c3cccc(NC(=O)c4c(F)cccc4F)c3)n2)cc(OC)c1OC [Compound 7]	0	87.7	0	99.8	0	100	80.6	0	2.6	0	99.9	0
C[C@@H](Oc1cc(-c2cnc3ccccn23)sc1C(N)=O)c1ccccc1Cl [Compound 8]	96.1	0	81.5	0	76.4	0	0	0	–	0	0	0
c1ccc(COc2cccc(-c3ccnc4[nH]ccc34)c2)cc1 [Compound 9]	71.2	87.9	0	0	0	0	0	0	–	0	0	0
Clc1ccc(Nc2ncc(-c3ccccc3)s2)cc1 [Compound 10]	0	0	0	0	0	86	0	0	–	0	0	0
Nc1ncc2c(-c3ccncc3)c[nH]c2n1 [Compound 11]	0	0	0	0	0	0	0	0	50.1	0	0	0
